Patent US20230365620A1, “CYCLIN-DEPENDENT KINASE INHIBITORS AND METHODS OF USE” (DANA-FARBER CANCER INSTITUTE, INC., priority 2018, published 2023)

Key:
[1] = test system: phosphorylation of S727-STAT1, a known CDK8 substrate, in HepG2 cells; assay: Western blot of pS727-STAT1 in IFNγ-treated HepG2 cells; type: cell-based; conditions: 18 h with IFNγ, Compound 33 at 0.5, 1 or 5 μM, DCA at 0.1 or 1 μM
Protocol: FIG. 1 is a Western blot illustrating inhibition of phosphorylation of 5727-STAT1, a known CDK8 substrate, to form pS727-STAT1. pS727-STAT1 and total STAT1 were from HepG2 cells independently treated for 18 h with interferon gamma (IFNγ) and 0.5 μM, 1 μM, or 5 μM Compound 33, or with IFNγ and 0.1 μM or 1 μM dehydrocortistatin A (“DCA”).

panel of 468 kinases = assay: KINOMESCAN binding analysis, panel of 468 kinases; conditions: 10 μM
Protocol: (§1) The KINOMESCAN® was performed with binding assays of Compound 33 against a panel of 468 kinases at a concentration of 10 μM.
(§2) To evaluate the kinase selectivity of compounds of the application, KINOMESCAN® binding analysis against a panel of 468 kinases at a concentration of 10 μM was conducted.

CDK19 = CDK19 (Homo sapiens, UniProt Q9BWU1); assay: KINOMESCAN binding analysis
Chain of CDK19 (Q9BWU1 whole entry): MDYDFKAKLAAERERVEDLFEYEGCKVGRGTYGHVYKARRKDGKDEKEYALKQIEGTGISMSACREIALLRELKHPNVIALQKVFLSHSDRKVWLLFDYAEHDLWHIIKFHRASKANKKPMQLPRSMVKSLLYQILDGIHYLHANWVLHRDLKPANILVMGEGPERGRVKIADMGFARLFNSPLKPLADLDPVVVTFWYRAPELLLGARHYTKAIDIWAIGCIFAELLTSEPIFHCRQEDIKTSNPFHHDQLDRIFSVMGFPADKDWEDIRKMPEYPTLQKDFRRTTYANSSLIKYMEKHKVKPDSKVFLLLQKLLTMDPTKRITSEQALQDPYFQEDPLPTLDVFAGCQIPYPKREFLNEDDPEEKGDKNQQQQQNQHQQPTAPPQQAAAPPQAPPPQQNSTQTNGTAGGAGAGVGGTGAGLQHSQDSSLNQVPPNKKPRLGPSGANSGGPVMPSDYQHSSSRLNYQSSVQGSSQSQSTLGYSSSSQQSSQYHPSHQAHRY
Protocol: as §1, §2

CDK8 [2] = target: T1, CDK8 (Homo sapiens, UniProt P49336); assay: KINOMESCAN binding analysis
Protocol: as §1, §2
Target sequence in this assay (P49336 whole entry): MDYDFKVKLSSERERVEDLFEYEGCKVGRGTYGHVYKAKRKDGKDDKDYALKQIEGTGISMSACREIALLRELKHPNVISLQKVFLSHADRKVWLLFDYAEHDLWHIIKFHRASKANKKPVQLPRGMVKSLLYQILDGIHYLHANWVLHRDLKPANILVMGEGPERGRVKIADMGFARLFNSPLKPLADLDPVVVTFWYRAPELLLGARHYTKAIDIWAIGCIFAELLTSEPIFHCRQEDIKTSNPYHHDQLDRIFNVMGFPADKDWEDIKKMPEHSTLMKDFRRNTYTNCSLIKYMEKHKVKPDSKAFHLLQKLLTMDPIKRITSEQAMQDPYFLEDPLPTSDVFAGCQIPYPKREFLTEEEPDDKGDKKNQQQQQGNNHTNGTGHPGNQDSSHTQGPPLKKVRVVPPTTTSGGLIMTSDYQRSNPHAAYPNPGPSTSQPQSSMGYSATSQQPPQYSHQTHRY

NEK1 [3] = target: T2, NEK1 (Homo sapiens, UniProt Q96PY6); assay: KINOMESCAN binding analysis
T2 sequence (Q96PY6 1-1258): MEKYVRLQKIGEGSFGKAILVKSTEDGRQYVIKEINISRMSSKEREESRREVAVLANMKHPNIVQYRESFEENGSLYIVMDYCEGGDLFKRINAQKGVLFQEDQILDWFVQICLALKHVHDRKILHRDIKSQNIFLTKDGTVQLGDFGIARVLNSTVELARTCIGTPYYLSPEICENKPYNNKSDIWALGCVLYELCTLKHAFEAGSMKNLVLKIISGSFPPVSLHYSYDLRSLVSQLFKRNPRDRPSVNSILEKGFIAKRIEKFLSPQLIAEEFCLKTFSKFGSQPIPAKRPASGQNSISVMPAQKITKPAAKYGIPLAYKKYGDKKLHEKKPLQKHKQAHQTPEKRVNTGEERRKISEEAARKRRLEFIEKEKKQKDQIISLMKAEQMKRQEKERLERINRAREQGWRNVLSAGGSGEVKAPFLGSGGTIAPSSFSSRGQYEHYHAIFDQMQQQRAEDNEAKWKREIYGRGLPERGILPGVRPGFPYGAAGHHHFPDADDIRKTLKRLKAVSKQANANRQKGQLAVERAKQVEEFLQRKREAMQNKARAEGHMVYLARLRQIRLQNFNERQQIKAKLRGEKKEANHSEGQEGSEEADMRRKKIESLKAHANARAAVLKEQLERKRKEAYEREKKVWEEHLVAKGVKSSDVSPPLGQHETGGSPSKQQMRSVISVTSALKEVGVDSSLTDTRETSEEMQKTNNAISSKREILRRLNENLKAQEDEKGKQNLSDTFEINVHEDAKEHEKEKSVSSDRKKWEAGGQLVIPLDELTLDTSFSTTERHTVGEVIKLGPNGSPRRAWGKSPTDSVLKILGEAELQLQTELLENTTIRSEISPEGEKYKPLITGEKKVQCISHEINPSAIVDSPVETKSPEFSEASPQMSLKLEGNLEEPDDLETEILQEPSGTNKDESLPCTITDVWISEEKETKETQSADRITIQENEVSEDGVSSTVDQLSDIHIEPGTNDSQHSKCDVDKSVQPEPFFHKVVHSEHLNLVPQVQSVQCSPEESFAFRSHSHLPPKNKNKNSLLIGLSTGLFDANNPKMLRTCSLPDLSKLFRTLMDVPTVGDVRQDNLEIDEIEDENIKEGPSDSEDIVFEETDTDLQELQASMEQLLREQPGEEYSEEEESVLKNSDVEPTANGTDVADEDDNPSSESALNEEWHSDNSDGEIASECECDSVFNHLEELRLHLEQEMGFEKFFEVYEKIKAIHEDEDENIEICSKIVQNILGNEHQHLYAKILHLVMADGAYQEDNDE
Protocol: as §1, §2

PIKFYVE = PIKFYVE (Homo sapiens, UniProt Q9Y2I7); assay: KINOMESCAN binding analysis
Chain of PIKFYVE (Q9Y2I7 whole entry): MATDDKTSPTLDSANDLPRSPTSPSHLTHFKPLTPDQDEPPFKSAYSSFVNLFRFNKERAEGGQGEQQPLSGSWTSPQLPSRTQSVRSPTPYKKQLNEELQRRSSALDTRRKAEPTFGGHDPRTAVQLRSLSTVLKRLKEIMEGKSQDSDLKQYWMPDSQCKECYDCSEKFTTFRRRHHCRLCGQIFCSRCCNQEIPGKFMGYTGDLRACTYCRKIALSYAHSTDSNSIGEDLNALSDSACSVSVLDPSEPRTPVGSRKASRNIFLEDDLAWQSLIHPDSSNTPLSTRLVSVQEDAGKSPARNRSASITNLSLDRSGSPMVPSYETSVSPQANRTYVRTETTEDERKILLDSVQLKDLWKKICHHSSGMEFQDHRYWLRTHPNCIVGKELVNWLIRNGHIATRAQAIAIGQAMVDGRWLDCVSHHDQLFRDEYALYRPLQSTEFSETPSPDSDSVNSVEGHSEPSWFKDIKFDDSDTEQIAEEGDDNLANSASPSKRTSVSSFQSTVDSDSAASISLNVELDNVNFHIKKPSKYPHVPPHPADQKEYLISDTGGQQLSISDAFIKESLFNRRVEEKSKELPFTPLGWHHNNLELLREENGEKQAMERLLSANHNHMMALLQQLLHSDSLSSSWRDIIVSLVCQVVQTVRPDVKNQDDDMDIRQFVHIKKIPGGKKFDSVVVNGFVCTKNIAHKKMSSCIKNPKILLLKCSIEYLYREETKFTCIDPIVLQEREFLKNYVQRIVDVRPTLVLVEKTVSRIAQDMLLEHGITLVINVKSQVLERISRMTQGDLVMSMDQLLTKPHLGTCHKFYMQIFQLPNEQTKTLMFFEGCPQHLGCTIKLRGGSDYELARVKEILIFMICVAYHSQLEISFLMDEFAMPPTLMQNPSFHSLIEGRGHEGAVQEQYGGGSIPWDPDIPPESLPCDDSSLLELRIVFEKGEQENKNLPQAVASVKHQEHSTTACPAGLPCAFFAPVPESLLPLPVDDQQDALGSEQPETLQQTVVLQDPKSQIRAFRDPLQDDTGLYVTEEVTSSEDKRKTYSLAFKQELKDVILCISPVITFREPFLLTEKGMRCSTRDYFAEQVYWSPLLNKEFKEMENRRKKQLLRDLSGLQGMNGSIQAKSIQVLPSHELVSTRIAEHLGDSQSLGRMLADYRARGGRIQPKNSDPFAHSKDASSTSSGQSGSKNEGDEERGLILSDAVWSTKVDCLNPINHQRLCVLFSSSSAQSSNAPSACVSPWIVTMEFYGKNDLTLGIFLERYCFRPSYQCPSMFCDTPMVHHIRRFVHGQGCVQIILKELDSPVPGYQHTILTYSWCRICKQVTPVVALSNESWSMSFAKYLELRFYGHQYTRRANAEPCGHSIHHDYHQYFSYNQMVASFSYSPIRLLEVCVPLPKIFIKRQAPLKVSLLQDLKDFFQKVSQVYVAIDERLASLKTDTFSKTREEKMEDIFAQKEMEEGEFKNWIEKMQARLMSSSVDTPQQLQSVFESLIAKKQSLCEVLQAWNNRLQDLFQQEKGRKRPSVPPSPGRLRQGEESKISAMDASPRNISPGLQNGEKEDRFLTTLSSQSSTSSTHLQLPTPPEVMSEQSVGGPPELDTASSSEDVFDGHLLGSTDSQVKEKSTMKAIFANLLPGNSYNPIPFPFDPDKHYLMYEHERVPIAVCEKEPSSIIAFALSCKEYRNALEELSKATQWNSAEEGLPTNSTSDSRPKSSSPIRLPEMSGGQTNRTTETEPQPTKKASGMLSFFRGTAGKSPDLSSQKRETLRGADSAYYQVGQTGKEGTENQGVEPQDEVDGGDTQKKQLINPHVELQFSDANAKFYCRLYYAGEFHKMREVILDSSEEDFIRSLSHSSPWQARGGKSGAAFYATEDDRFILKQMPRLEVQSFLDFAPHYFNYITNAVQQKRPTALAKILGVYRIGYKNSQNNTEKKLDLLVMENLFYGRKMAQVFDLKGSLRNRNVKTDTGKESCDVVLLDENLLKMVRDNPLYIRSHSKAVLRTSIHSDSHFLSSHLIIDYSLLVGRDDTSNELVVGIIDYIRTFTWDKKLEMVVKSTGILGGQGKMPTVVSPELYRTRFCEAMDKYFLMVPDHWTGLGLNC
Protocol: as §1, §2

NEK1 [4] = target: T2, NEK1; assay: Dose-response analysis of NEK1; type: biochemical
CDK8 [5] = target: T1, CDK8; assay: LANTHASCREEN Eu Kinase Binding Assay (competitive kinase binding, Tracer displacement); parameters: purchased INVITROGEN; conditions: displacing the Tracer from binding to the target kinase; read-out: Enzyme IC50
Protocol: The biological activities of the compounds of the present application can be assessed through a variety of methods known in the art. […] The changes in the signal produced by the reporting ligand when the compound is present relative when the compound is absent are recorded, which are calculated to provide the IC50 of the compound. Compounds of the present application were tested in a competitive kinase binding assay by using commercially available assay system. For example, LANTHASCREEN© Eu Kinase Binding Assay (INVITROGEN™) was used to measure the IC50 of the compounds of the present application in displacing the Tracer from binding to the target kinase, by following the assay protocol from INVITROGEN™.
Target sequence in this assay (P49336 whole entry): as the sequence (P49336 whole entry) above
Target sequence in this assay (P24863 whole entry partner): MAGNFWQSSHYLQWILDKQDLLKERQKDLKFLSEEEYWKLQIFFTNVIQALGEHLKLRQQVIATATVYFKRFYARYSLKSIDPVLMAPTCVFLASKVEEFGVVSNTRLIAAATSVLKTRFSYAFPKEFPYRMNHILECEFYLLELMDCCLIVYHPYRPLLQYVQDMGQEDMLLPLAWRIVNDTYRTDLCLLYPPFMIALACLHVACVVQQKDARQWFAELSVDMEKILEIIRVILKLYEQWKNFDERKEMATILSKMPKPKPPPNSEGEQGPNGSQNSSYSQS

CDK8 [6] = target: T1, CDK8; assay: CDK8 IC50 stated for DCA; type: biochemical; parameters: purchased INVITROGEN
Target sequence in this assay (P49336 whole entry): as the sequence (P49336 whole entry) above
Target sequence in this assay (P24863 whole entry partner): as the sequence (P24863 whole entry partner) above

Row | IC50 (CDK8 [5]) [nM] | SMILES | further results
1 | > 6000 | C[C@]12CC[C@H](O)CC1=CC[C@@H]1[C@@H]2CC[C@]2(C)C(c3ccc4cnncc4c3)=CC[C@@H]12 [Compound 3] | 
2 | 701 to 2000 | C[C@]12CC[C@H](O)CC1=CC[C@@H]1[C@@H]2CC[C@]2(C)C(c3ccc4c(N)n[nH]c4c3)=CC[C@@H]12 [Compound 5] | 
3 | > 6000 | C[C@]12CC[C@H](O)CC1=CC[C@@H]1[C@@H]2CC[C@]2(C)C(c3ccc4[nH]ncc4c3)=CC[C@@H]12 [Compound 6] | 
4 | > 6000 | C[C@]12CC[C@H](O)CC1=CC[C@@H]1[C@@H]2CC[C@]2(C)C(c3ccc4cn[nH]c4c3)=CC[C@@H]12 [Compound 7] | 
5 | < 100 | C[C@]12CC[C@H]3[C@@H](CC=C4C[C@@H](O)CC[C@@]43C)[C@@H]1CC[C@@H]2c1ccc2ccncc2c1 [Compound 8a, (3S,8S,9S,10R,13S,14S,17S)-17-(isoquinolin-7-yl)-10,13-dimethyl-2,3,4,7,8,9,10,11,12,13,14,15,16,17-tetradecahydro-1H-cyclopenta[a]phenanthren-3-ol] | 
6 | > 6000 | C[C@]12CC[C@H]3[C@@H](CC=C4C[C@@H](O)CC[C@@]43C)[C@@H]1CC[C@@H]2c1ccc2cnncc2c1 [Compound 9] | 
7 | > 6000 | C[C@]12CC[C@H]3[C@@H](CC=C4C[C@@H](O)CC[C@@]43C)[C@@H]1CC[C@@H]2c1ccc2[nH]ncc2c1 [Compound 12] | 
8 | > 6000 | C[C@]12CC[C@H]3[C@@H](CC=C4C[C@@H](O)CC[C@@]43C)[C@@H]1CC[C@@H]2c1ccc2cn[nH]c2c1 [Compound 13] | 
9 | 101 to 200 | CN(C)[C@H]1CC[C@@]2(C)[C@@H](CC[C@@H]3[C@@H]2CC[C@]2(C)C(c4ccc5ccncc5c4)=CC[C@@H]32)C1 [Compound 22r, (3S,8R,9S,10S,13S,14S)-17-(isoquinolin-7-yl)-N,N,10,13-tetramethyl-2,3,4,5,6,7,8,9,10,11,12,13,14,15-tetradecahydro-1H-cyclopenta[a]phenanthren-3-amine] | 
10 | < 100 | CN(C)[C@H]1CC[C@@]2(C)[C@@H](CC[C@@H]3[C@@H]2CC[C@]2(C)[C@@H](c4ccc5ccncc5c4)CC[C@@H]32)C1 [Compound 23, (3S,8R,9S,10S,13S,14S,17S)-(isoquinolin-7-yl)-N,N,10,13-tetramethylhexadecahydro-1H-cyclopenta[a]phenanthren-3-amine] | 
11 | < 100 | CN(C)[C@@H]1CC[C@@]2(C)[C@@H](CC[C@@H]3[C@@H]2CC[C@]2(C)[C@@H](c4ccc5ccncc5c4)CC[C@@H]32)C1 [Compound 25] | 
12 | 101 to 200 | C[C@]12CC[C@H](N3CCOCC3)C[C@@H]1CC[C@@H]1[C@@H]2CC[C@]2(C)[C@@H](c3ccc4ccncc4c3)CC[C@@H]12 [Compound 34, 4-((3S,5S,8R,10S,13S,14S,17S)-17-(isoquinolin-7-yl)-10,13-dimethylhexadecahydro-1H-cyclopenta[a]phenanthren-3-yl)morpholine] | 
13 | < 100 | C[C@]12CC[C@H](n3ccnn3)C[C@@H]1CC[C@@H]1[C@@H]2CC[C@]2(C)[C@@H](c3ccc4ccncc4c3)CC[C@@H]12 [Compound 39, 7-((3S,8R,9S,10S,13S,14S,17S)-10,13-dimethyl-3-(1H-1,2,3-triazol-1-yl)hexadecahydro-1H-cyclopenta[a]phenanthren-17-yl)isoquinoline] | 
14 | 701 to 2000 | CN[C@H]1CC[C@@]2(C)[C@@H](CC[C@@H]3[C@@H]2CC[C@]2(C)[C@@H](c4ccc5ccncc5c4)CC[C@@H]32)C1 [Compound 46, (3S,8R,9S,10S,13S,14S,17S)-17-(isoquinolin-7-yl)-N,10,13-trimethylhexadecahydro-1H-cyclopenta[a]phenanthren-3-amine] | 
15 | > 6000 | C[C@]12CC[C@H](O)CC1=CC[C@@H]1C2CC[C@]2(C)C(c3ccc4cnccc4c3)=CC[C@@H]12 (some centres unmarked) [Compound 48] | 
16 |  | CN(C)[C@H]1C[C@@]23CC[C@@]4(O2)C(=CC[C@]2(C)C(c5ccc6ccncc6c5)=CC[C@H]24)C=C3[C@@H](O)[C@@H]1O [DCA, dehydrocortistatin A, reference compound] | inhibition of S727 phosphorylation of STAT1 [1]: dose-dependent inhibition; IC50 (CDK8 [6]): 17 nM

Row | SMILES | IC50 (CDK8 [5]) [nM] | further results
17 | CN(C)[C@H]1CC[C@@]2(C)C(=CCC3[C@@H]4CC[C@H](c5ccc6ccncc6c5)[C@@]4(C)CC[C@@H]32)C1 (stereo in doubt) [Compound 33, (3S,8R,9S,10R,13S,14S)-17-(isoquinolin-7-yl)-N,N,10,13-tetramethyl-2,3,4,7,8,9,10,11,12,13,14,15,16,17-tetradecahydro-1H-cyclopenta[a]phenanthren-3-amine] | < 100 | inhibition of S727 phosphorylation of STAT1 [1]: dose-dependent inhibition; kinase selectivity (panel of 468 kinases): highly selective for CDK8 and CDK19; number of interactions greater than 90% inhibition (panel of 468 kinases): 4; inhibition at 10 µM (CDK19): > 90%; inhibition at 10 µM (CDK8 [2]): > 90%; inhibition at 10 µM (NEK1 [3]): > 90%; inhibition at 10 µM (PIKFYVE): > 90%; IC50 (NEK1 [4]): > 10000 nM
